Here are results for 5 molecules from patent publication US20230248745A1, “SILVER ENHANCED CANNABINOID ANTIBIOTICS” (priority 2020, published 2023).

Molecules are shown by their SMILES. “Also recorded” adds a separate entry of the source. Like-named read-outs stand apart in the source and are kept apart here. A value given as a limit tells only on which side of the number the result lay.

The test system of test [1] is E. coli strain K12. The test is described as follows: Checkerboard assay, FICI of cannabinoid/silver combinations. Type of test: cell-based, Escherichia coli. As to conditions: for FICI Silver Nanoparticles: Silver Nanoparticles in combination with the cannabinoid; for FICI Silver Sulfate: Silver Sulfate in combination with the cannabinoid. Here is the method: (§1) Antibacterial growth was measured using a checkerboard analysis or qualitatively using agar plates with zones of inhibition. Viability was measured by the number of colony forming units (CFU) over time.
(§2) Using checkerboard analysis, the fractional inhibitory concentration index (FICI) was calculated for the 96-well plate test to illustrate synergy.
(§3) Escherichia coli (E. coli), strain K12, was cultured in Luria-Bertani (LB) medium and inoculated at 37 C.
(§4) Cannabinoids or silver (expressed as the concentration of silver not the salt) were serially diluted 2-fold across the 96-well plate (Costar, catalog no. 3370) followed by addition of 100 μL of bacterial cultures with an OD600 of 0.0025. […] Wells turbidity were then analyzed using Varioskan™ microplate reader.
(§5) FICI was calculated in a checkerboard assay based on the turbidity of the wells. FIC of each agent was determined as the ratio of the minimal inhibitory concentration MIC of one agent in the presence of the other agent to the MIC of that agent alone. FICI was consequently computed as the sum of each agent's FIC.

The subject of test [2] is MRSA (strain USA300). The test is described as follows: microbe, parasite or virus in culture. It counts as cell-based, Methicillin-resistant Staphylococcus aureus. As to conditions: agent alone, silver expressed as silver.
Text: In therapeutic applications, synergy between active ingredients occurs when an observed combined therapeutic effect is greater than the sum of therapeutic effects of individual active ingredients, or a new therapeutic effect is produced that the active ingredients could not produce alone. […] In this context, the enhancement of therapeutic effect may take the form of increased efficacy or potency and/or decreased adverse effects. The synergistic effect may be mediated in whole or in part by the pharmacokinetics and/or pharmacodynamics of the active ingredients in a subject, so that the amount and proportion of the ingredients in the formulation may be synergistic in vivo. This in vivo synergy may be effected with a formulation that includes the active ingredients in amounts and proportions that are also synergistic in in vitro assays of efficacy. As used herein, the term “synergistically effective amounts” accordingly refers to amounts that are synergistic in vivo and/or in vitro. A numeric quantification of synergy is often expressed as a fractional inhibitory concentration index (FICI), which represents the sum of the fractional inhibitory concentrations (FICs) of each drug tested, where the FIC is determined for each drug by dividing the minimum inhibitory concentration (MIC, the lowest concentration of the drug which prevents visible growth of the bacterium in a standard in vitro assay—standard colorometric assay based on resazurin) of each drug when used in combination by the MIC of each drug when used alone. In very general terms, a FICI lower or higher than 1 indicates positively correlated activity (at least additive or potentiation) or an absence of positive interactions, respectively. […] (as described and used by Joung D K et al. and Rakoliya K et al.)
as §4

The subject of test [3] is MRSA (strain USA300). The test is described as follows: Kill-curve test (CFU over time). Type of test: cell-based, Methicillin-resistant Staphylococcus aureus. As to conditions: for MRSA growth by 24 hours: cannabinoid alone at ½×MIC. Here is the method: as §1
(§6) MRSA strain, USA300, was cultured in Luria-Bertani (LB) medium and inoculated at 37 C.
(§7) For each test tube, 1 mL of culture at OD600 of 0.005 was added to 1 mL of LB medium containing antibiotics to reach target sub-MIC concentrations of each compound. Samples of 100 μL was extracted from each tube at the determined time stamps followed by 10-fold serial dilutions. 10 μL of each dilution was then added on the LB agar plates that were subsequently incubated for 24 hours. Colonies were inspected and results quantified as log CFU/mL.

The subject of test [4] is E. coli (strain K12). As to the kind of experiment: Kill-curve test (CFU over time). Type of test: cell-based, Escherichia coli. The settings on record: for inhibitory effect on E. coli growth over 24 hours / inhibition of E. coli growth over 24 hours / inhibition of E. coli growth (summary): cannabinoid alone; for inhibitory effect on E. coli growth over 24 hours: 8 mg/L; for inhibition of E. coli growth over 24 hours: 16 mg/L; for inhibition of E. coli growth (summary): concentrations up to 16 mg/L. How it is done:
as §1, §3, §7

Test [5] deals with MRSA (USA300). The test is described as follows: Checkerboard assay, FICI of cannabinoid/silver combinations. It counts as cell-based, Methicillin-resistant Staphylococcus aureus. Here is the method:
as §1, §2, §6, §4, §5

In test [6] the test system is MRSA (strain USA 300). Type of test: cell-based, Methicillin-resistant Staphylococcus aureus. As to conditions: for inhibition of bacterial growth (ring): single agent at 2% w/w to PVA, films and coated catheter sections, 24 hours. Here is the method: PVA films were made by solvent casting using 33 μl drops of 2.5% PVA (88% hydrolyzed, 125 KDa molecular weight) mixed with CBC, CBG or CBGA (2% w/w to PVA). […] 3 mm sections of a urethral catheter (BARDEX® BARD®) were cut and coated with the same 33 μl volume of PVA/Silver/cannabinoid used to make films. Films and coated catheter sections were dried overnight in the dark. Five cavities were created in the LB agar plates containing MRSA (strain USA 300) at OD600 of 0.005. PVA films and catheters coated with PVA films were then placed in the cavities and moistened with 20 μL of deionized distilled water. Plates were incubated for 24 hours at 37° C.

Where [7] appears, read: cannabinoid with silver sulfate.
Where [8] appears, read: cannabinoid ½×MIC + AgNP ⅛×MIC (5 mg/L).
Setting [9] is: 8 mg/L cannabinoid + 2.5, 1.25 and 0.625 mg/L AgSO4 (each).
Setting [10] is: Silver Nitrate in combination with the cannabinoid.
The mark [11] stands for this setting: cannabinoid with silver nitrate.
The mark [12] stands for this setting: Staphylococcus aureus, read-out: MIC.
Where [13] appears, read: cannabinoid with silver nanoparticles.
Setting [14] is: cannabinoid ½×MIC + silver nitrate 1 mg/L.
[15] abbreviates: cannabinoid ½×MIC + silver nitrate 5 and 8 mg/L.

Regarding `CCCCCc1cc2c(c(O)c1C(=O)O)C=CC(C)(CCC=C(C)C)O2` (centres unmarked) [CBCA, cannabichromenic acid], in test [1], the “FICI Silver Nanoparticles” value is on record as 1.25 and the “FICI Silver Sulfate” value is 0.50. Further, the “interaction (interpretation of FICI)” value in test [1] (setting [7]) is given as “synergistic”. Also, in test [2], the MIC stood at 2 µg/mL. Besides, in test [3], the “kill-curve effect (CFU)” value is “greater bactericidal effect” and the “MRSA growth by 24 hours” value was “returned to levels equal to that of 0×MIC treatment”. For the same molecule, in test [3] (setting [8]), the “kill-curve effect (CFU)” value is “rapid bactericidal effect”, the “time of full elimination of CFU” value stood at 4 h, the “time of onset of bactericidal effect” value is 2 h and the “time through which bactericidal effect persisted” value was 24 h. Further, in test [4], the “time through which bacterial growth was inhibited” value turned out to be 24 h, the “time through which the effect persisted” value was determined as 24 h, the “time to the reduction in E. coli CFU” value was at most 4 h and the “inhibitory effect on E. coli growth over 24 hours” value is given as “failed to achieve any inhibitory effect”. Also, in test [4], the “inhibition of E. coli growth over 24 hours” value is on record as “failed to achieve any inhibition” and the “inhibition of E. coli growth (summary)” value is on record as “fail to achieve any detectable inhibition”. Moreover, in test [4] (setting [9]), the “time through which E. coli growth was inhibited” value worked out at 24 h and the “time to the reduction in E. coli CFU” value is at most 6 h. Further, the FICI in test [5] (setting [10]) stood at 2. Also, the “interaction (interpretation of FICI)” value in test [5] (setting [11]) is listed as “no improved antibiotic affect”.
Turning to `C=C(C)[C@@H]1CCC(C)=C[C@H]1c1c(O)cc(CCCCC)cc1O` [CBD, cannabidiol, reference compound], in test [1], the “FICI Silver Nanoparticles” value came to 1.25 and the “FICI Silver Sulfate” value was determined as 1. In addition, the “interaction (interpretation of FICI)” value in test [1] (setting [7]) is “not observed”. Besides, the MIC in test [2] (setting [12]) was 2 µg/mL. Besides, the “MRSA growth by 24 hours” value in test [3] was “returned to levels equal to that of 0×MIC treatment”. Besides, in test [3] (setting [8]), the “MRSA growth over 24 hours compared to cannabinoid alone” value is “substantive decrease”, the “kill-curve effect (CFU)” value is “rapid bactericidal effect” and the “time of onset of bactericidal effect” value is 2 h. The “inhibition of E. coli growth over 24 hours by the combination” value in test [4] (16 mg/L cannabinoid + 2.5 mg/L AgSO4) is recorded as “did not result in a substantial inhibition; also recorded: no increase in antimicrobial activity”. In test [4], the “inhibition of E. coli growth over 24 hours” value is “no inhibition” and the “inhibition of E. coli growth (summary)” value is listed as “fail to achieve any detectable inhibition”. Besides, the FICI in test [5] (setting [10]) is reported as 2. Moreover, the “interaction (interpretation of FICI)” value in test [5] (setting [11]) was “no improved antibiotic affect”.
As to `C=C(C)[C@@H]1CCC(C)=C[C@H]1c1c(O)cc(CCCCC)c(C(=O)O)c1O` [CBDA, cannabidiolic acid], in test [1], the “FICI Silver Nanoparticles” value came out at 0.73 and the “FICI Silver Sulfate” value amounted to 0.52. For the same molecule, in test [1] (setting [13]), the “interaction (interpretation of FICI)” value is on record as “potentiation”. Moreover, the “interaction (interpretation of FICI)” value in test [1] (setting [7]) is “potentiation”. Besides, in test [4], the “time through which bacterial growth was inhibited” value was 24 h, the “time through which the effect persisted” value stood at 24 h, the “time to the reduction in E. coli CFU” value was at most 4 h and the “inhibitory effect on E. coli growth over 24 hours” value is reported as “failed to achieve any inhibitory effect”. In test [4], the “inhibition of E. coli growth over 24 hours” value was “failed to achieve any inhibition” and the “inhibition of E. coli growth (summary)” value is on record as “fail to achieve any detectable inhibition”. Also, in test [4] (setting [9]), the “time through which E. coli growth was inhibited” value was 24 h and the “time to the reduction in E. coli CFU” value is at most 6 h. The FICI in test [5] (setting [10]) is 2. Besides, the “interaction (interpretation of FICI)” value in test [5] (setting [11]) is listed as “no improved antibiotic affect”.
On to `CCCCCc1cc(O)c(C/C=C(\C)CCC=C(C)C)c(O)c1` [CBG, cannabigerol], for which, in test [6], the “antibiotic effect of combination compared with silver nanoparticles alone” value is on record as “increased antibiotic effect” and the “inhibition of bacterial growth (ring)” value was “some level of inhibition”. In test [1], the “FICI Silver Nanoparticles” value came out at 1.25 and the “FICI Silver Sulfate” value was 1. In test [1] (setting [7]), the “interaction (interpretation of FICI)” value was “not observed”. In addition, the MIC in test [2] (setting [12]) is 2 µg/mL. Moreover, in test [3], the “kill-curve effect (CFU)” value is “highly comparable bactericidal effect”, the “time for which bactericidal effect persisted” value came out at 24 h and the “MRSA growth by 24 hours” value is reported as “returned to levels equal to that of 0×MIC treatment”. In addition, the “kill-curve effect (CFU)” value in test [3] (cannabinoid ¼×MIC + silver nitrate 5 and 8 mg/L) is “perceptibly bactericidal”. For the same molecule, in test [3] (cannabinoid ½×MIC + AgNP 1/160×MIC (0.25 mg/L)), the “kill-curve effect (CFU)” value was “bactericidal effect which was greater than that seen with ½×MIC CBG alone”. Besides, in test [3] (setting [8]), the “kill-curve effect (CFU)” value is recorded as “rapid, full bactericidal effect”; the “time of onset of bactericidal effect” value worked out at 2 h; the “time through which bactericidal effect persisted” value came to 24 h. Moreover, in test [3] (setting [14]), the “kill-curve effect (CFU)” value was “bactericidal effect”, the “time for which bactericidal effect remained” value is “up to 6 hours” and the “time of onset of bactericidal effect” value amounted to 2 h. Further, in test [3] (setting [15]), the “kill-curve effect (CFU)” value is “fully bactericidal effect”, the “time of onset of bactericidal effect” value stood at 2 h and the “time through which bactericidal effect remained” value came out at 24 h. The FICI in test [5] (Silver Nanoparticles in combination with the cannabinoid) was 0.625. Further, in test [5] (setting [10]), the FICI was found to be 0.625. For the same molecule, in test [5] (setting [13]), the “interaction (interpretation of FICI)” value was “partial synergy”. Also, in test [5] (setting [11]), the “interaction (interpretation of FICI)” value was “partially synergistic”.
As to `O=[N+]([O-])[O-].[Ag+]` [silver nitrate, reference compound], the “inhibition of bacterial growth (ring)” value in test [6] was “some level of inhibition”; in test [6] (listed as Silver nitrate), “strong inhibition”. Besides, in test [2], the MIC is 16 µg/mL. For the same molecule, the “bacterial growth at 24 hours” value in test [3] (silver nitrate alone, 1 mg/L) is “full bacterial growth had occurred”. Also, the “duration of bacterial growth inhibition” value in test [3] (silver nitrate alone, 5 mg/L) was 4 h; in test [3] (silver nitrate alone, 8 mg/L), 6 h.
